Measurements reported in patent US5985273A, “Biological control of insects” (priority 1994, dated 1999).

Assays:
[1] = test system: Ctenocephalides felis; experiment: Development of cat flea eggs in dried blood diets; assay type: in vivo; conditions: Day 16
Experimental: Blood was collected from the jugular vein of a five year old merino sheep that had not been treated with an ectoparasitic agent for 18 months. The blood was collected into a 100 ml plastic bottle containing 0.8 ml of heparin and was maintained at 4° C. Inhibitors were pre-weighed into sterile 5 ml plastic vials and 4.5 ml of blood added. The samples were mixed, placed at -70° C. for 24 hours, then freeze-dried. The freeze-dried samples were sieved through a stainless steel 63 micron sieve, and placed into sterile 5 ml plastic vials (0.15 g/per tube). Four flea eggs were placed into each vial, and a sheet of tissue paper fastened by an elastic band was fitted to the top of each vial. The vials were incubated at 25° C. and 70-80% R H for 6 days. Vermiculite was then added to each vial to provide a supporting medium for the fleas to pupate and the tubes incubated at 25° C. and 70-80% R H, for a further 10 days. Ten control vials and three vials of each treatment were tested.
At the conclusion of the incubation period the vials were placed at -20° C. for 24 hours to kill the fleas. The number of eggs hatched and the life-cycle state was recorded.

[2] = test system: O. surinamensis larvae; experiment: Weight reduction of Oryzaephylus surinamensis larvae in treated flour; assay type: in vivo
Experimental: Insects were cultured in cleaned, ground and sieved wholemeal flour made from organic wheat. Inhibitors from bottles of pre-weighed material were dry-mixed with the flour and residual inhibitor rinsed from bottles with a small volume of water. Rinse water was added to the flour and the mixture re-ground. The impregnated flour was transferred to a 20 mL vial and mixed thoroughly by shaking and inverting.
Adults of T. castaneum were allowed to oviposit on flour, eggs were sifted from the flour and transferred one by one with a single hair to microwell tubes containing a small amount of flour. Each level of treatment was performed in triplicated using 32 wells/replicate. Assays were performed in triplicated. Cultures were incubated at 30° C. and 55% R H.
The bioassay for this insect was outlined for T. castaneum, except incubations were conducted at 32.5° C. and 70% R H. After 8 days the insects were sieved from the flour and weighed.

[3] = test system: Heliothis punctigens larvae; experiment: Growth and survival of cotton budworm larvae fed an artificial diet; assay type: in vivo; conditions: 10 days; for % Alive: control 70.0; for Average Laval Weight: control 165.4
Experimental: 1. The Haricot beans were cooked in a microwave for 40 minutes. 2. Agar was added to the hot water and stirred on a hot plate until almost boiling. 3. The haricot beans, agar mix, yeast and wheat germ was blended in an electric mixer for 3 minutes. 4. When the temperature has dropped to 60°C., the acids were added and mixed with the media. […] Inhibitor solutions or an equal volume of water were placed into sterilized glass tubes at designated concentrations. The artificial media was added to each tube (1.5 ml) using a sterile 10 ml syringe. First instar Heliothis punctigens larvae (1 larvae per tube) were added to the glass tubes and the tubes were capped. The tubes were incubated for 10 days at 25° C. The larvae were killed by placing the glass tubes at -70° C. for 24 hours, and then individually weighed. Percentage inhibition was calculated by comparison to control larvae.

[4] = test system: Tribolium castaneum; experiment: Growth and survival of Tribolium castaneum in treated flour; assay type: in vivo; conditions: Day 6; all dose levels
Experimental: Insects were cultured in cleaned, ground and sieved wholemeal flour made from organic wheat. Inhibitors from bottles of pre-weighed material were dry-mixed with the flour and residual inhibitor rinsed from bottles with a small volume of water. Rinse water was added to the flour and the mixture re-ground. The impregnated flour was transferred to a 20 mL vial and mixed thoroughly by shaking and inverting. Adults of T. castaneum were allowed to oviposit on flour, eggs were sifted from the flour and transferred one by one with a single hair to microwell tubes containing a small amount of flour. Each level of treatment was performed in triplicated using 32 wells/replicate. Assays were performed in triplicated. Cultures were incubated at 30° C. and 55% R H. After 6 days each replicate of 32 wells was combined, the larvae counted and the numbers compared with numbers in the control (no inhibitor) treatment. Larvae were classified as "small" if appreciably smaller than reference larvae, or abnormal if unusual behaviour or formation were observed (eg. twisting or twisted larvae). Test inhibitors and dose rates were the same as those used in Example 4.

[5] = test system: L. cuprina eggs; experiment: Egg hatch of L. cuprina on liver in vitro; assay type: in vivo, Lucilia cuprina; conditions: 24 hours at 35° C., control 71
Experimental: L. cuprina eggs were placed on pieces of liver (0.9 g) which were then placed in individual wells of a 24-well tissue culture plate. Phosphate buffered saline (PBS, 0.1 ml) containing inhibitors at set concentrations were added to each well with 30 freshly laid and sterilised eggs of L. cuprina. The culture plate was then maintained in a sterile environment at 35° C. for 24 hours, after which time the percentage hatch was assessed.

[6] = test system: Lucilia cuprina larvae; experiment: Growth and survival of first instar sheep blowfly larvae on culture medium with inhibitor; assay type: in vivo; conditions: for % Growth Incubation / Average Larval Weight: Table 2.3; for Average Larval Weight: control 9.08
[7] = test system: Teleogryllus commodus; experiment: Mortality of black field cricket nymphs on treated cabbage leaf disks; assay type: in vivo; conditions: 30 mM; after 7 days
Experimental: (i) Stock solutions of inhibitors and control solutions were prepared as aqueous solutions or suspensions as outlined in Table 6.1.
(ii) Mortality was assessed by commencing the study with 1st instar nymphs.
(iii) Cabbage leaf disks (5×8 mm diameter disks/treatment) were smeared with 100 μl of inhibitor or control stock solutions and allowed to dry. Disks were placed singly in 40 mm petri dishes, together with a moist cotton wool pas as water supply and a piece of fluted plastic for shelter.
(iv) Ten nymphs were placed on each disc and the dishes incubated at 25° C.
(v) Mortality was assessed daily and any dead individuals removed.

[8] = test system: Bovicola ovis (Hartley strain); experiment: Survival of sheep lice on inhibitor treated wool; assay type: in vivo; conditions: of 10 lice

O=C(O)CN(CCN(CC(=O)O)CC(=O)O)CC(=O)O [EDTA, ethylene diamine tetraacetic acid]
Percentage of Fleas Progressing Through to Pupation ([1]; 1.5625 mg in 4.5 ml of blood, control 97.5): 0% | Percentage of Fleas Progressing Through to Pupation ([1]; 3.125 mg in 4.5 ml of blood): 0% | Percentage of Fleas Progressing Through to Pupation ([1]; 6.25 mg in 4.5 ml of blood): 0% | inhibition at 10000 µM ([2]; 192 h, 10 mM, 8 days, relative to untreated larvae, read-out: Percentage Growth Inhibition): 32% | inhibition at 20000 µM ([2]; 192 h, 20 mM, 8 days, relative to untreated larvae, read-out: Percentage Growth Inhibition): 4% | inhibition at 30000 µM ([2]; 192 h, 30 mM, 8 days, relative to untreated larvae, read-out: Percentage Growth Inhibition): 28% | Growth inhibition, summary in words ([2]; text summary of Table 9.1): moderately effective | % Alive ([3]; 2.5 mM): 50.0% | Average Laval Weight ([3]; 2.5 mM): 123.6 mg | % Alive ([3]; 5.0 mM): 33.3% | Average Laval Weight ([3]; 5.0 mM): 9.25 mg | % Alive ([3]; 10.0 mM): 67.0% | Average Laval Weight ([3]; 10.0 mM): 4.75 mg | inhibition at 2500 µM ([3]; Heliothis, 240 h, 2.5 mM, read-out: % Growth Inhibition): 25.3% | inhibition at 5000 µM ([3]; Heliothis, 240 h, 5.0 mM, read-out: % Growth Inhibition): 94.4% | inhibition at 10000 µM ([3]; Heliothis, 240 h, 10.0 mM): 97.1% | Larval size classification [4]: small | % Hatch ([5]; 2 mM): 10% | % Hatch ([5]; 5 mM): 0% | % Hatch ([5]; 10 mM): 10% | Effect on larval growth, summary in words ([6]; Example 1, Table 1.2): effective growth inhibitors | inhibition at 5000 µM ([6]; Lucilia cuprina, first instar larvae, 5 mM): 84% | % Growth Incubation ([6]; 0.25 mM): -6.6% | Average Larval Weight ([6]; 0.25 mM): 9.68 10^-4 g | % Growth Incubation ([6]; 0.50 mM): 39.8% | Average Larval Weight ([6]; 0.50 mM): 5.47 10^-4 g | % Growth Incubation ([6]; 1.0 mM): 69.7% | Average Larval Weight ([6]; 1.0 mM): 2.75 10^-4 g | % Growth Incubation ([6]; 1.5 mM): 51.2% | Average Larval Weight ([6]; 1.5 mM): 4.43 10^-4 g | % Growth Incubation ([6]; 2.0 mM): 72.4% | Average Larval Weight ([6]; 2.0 mM): 2.51 10^-4 g | Larval survival ([6]; first instar larvae, 10 mM): All killed | Mortality [7]: 78% | Mortality (class) [7]: High (high 41-100%) | Number of Living Lice ([8]; Adult, 10 mM, 24 Hours at 35° C.): 2 | Number of Living Lice ([8]; Adult, 20 mM, 24 Hours at 35° C.): 1 | Number of Living Lice ([8]; Adult, third EDTA line, concentration not given, 24 Hours): 0 | Number of Living Lice ([8]; instar 1, 10 mM, 24 Hours at 35° C.): 0 | Number of Living Lice ([8]; instar 1, 20 mM, 24 Hours at 35° C.): 0 | Number of Living Lice ([8]; instar 1, third EDTA line, concentration not given, 24 Hours): 0 | Number of Living Lice ([8]; instar 2, 10 mM, 24 Hours at 35° C.): 2 | Number of Living Lice ([8]; instar 2, 20 mM, 24 Hours at 35° C.): 1 | Number of Living Lice ([8]; instar 2, third EDTA line, concentration not given, 24 Hours): 0 | Number of Living Lice ([8]; instar 3, 10 mM, 24 Hours at 35° C.): 1 | Number of Living Lice ([8]; instar 3, 20 mM, 24 Hours at 35° C.): 0 | Number of Living Lice ([8]; instar 3, third EDTA line, concentration not given, 24 Hours): 0
